In patent US8889699B2, “5-fluorouracil derivative” (Delta-Fly Pharma, Inc., priority 2009, dated 2014):
Like-named read-outs stand apart in the source and are kept apart here.

Tests used:
[1] = test system: human gastric cancer strain (SC-2); settings: 14 days, day 15, Test Example 3
Method: The resulting product was stirred with a stirrer at room temperature for about 10 minutes. […] Thereafter, ultrasonic treatment was performed under ice cooling for about 5 minutes, thereby obtaining a BOF-A2 drug liquid to be used at a dose of 14 mg/kg/day, 21 mg/kg/day, or 28 mg/kg/day. • (f) Experiment: The human gastric cancer strain (SC-2) was subcutaneously transplanted into the back of a BALB/cA-nu mouse and preliminarily proliferated therein. The proliferated strain was extracted, cut into about 2 mm square pieces with scissors in physiological saline, and subcutaneously inoculated to the right axillary region of mice of the same strain, 5 to 6 weeks of age, using a transplantation needle. […] Then, drug administration was initiated from the next day. Each of the test liquids shown in (a) to (e) above was administered orally to the mice in each of the test drug groups using a sonde for oral administration at a dose of 0.1 ml per 10 g body weight once a day for 14 continuous days. In the same manner as the above, the cancer-bearing mice in the control group were subjected to oral administration of only 0.5% HPMC liquid for 14 continuous days.
The tumor volume of each mouse in each group before the initiation of the treatment, on day 3, day 5, day 8 (1 week after), day 11, and day 15 (2 weeks after), i.e., after termination of the administration, was calculated using Equation 1 below, and respective relative tumor volume (RTV) relative to the tumor volume at the time of initiation of the treatment was calculated. In relation to the antitumor effect, the average value of the tumor proliferation inhibition ratio (IR; %) was calculated from the average tumor volume of each treatment group on day 15 (after termination of the treatment) relative to that of the control group on day 15, using Equation 2. […] Along therewith, a weight change ratio was calculated from the body weight of the mice at the time of the termination of the drug administration relative to the body weight of the mice at the time of the initiation of the administration, using Equation 3. […] Tumor volume(mm^3)=(major axis)×(minor axis)^2×½ Equation 1: Tumor proliferation inhibition ratio(IR, %)=[1−(average tumor volume of treatment group)/(average tumor volume of control group)]×100 Equation 2: Average weight change ratio(%)=[(average weight on Day 15)−(average weight on Day 1)]/(average weight on Day 1)×100 Equation 3: […]
The resulting product was stirred with a stirrer at room temperature for about 10 minutes. […] The proliferated strain was extracted, cut into about 2 mm square pieces with scissors in physiological saline, and subcutaneously inoculated to the right axillary region of mice of the same strain, 5 to 6 weeks of age, using a transplantation needle. […] Then, drug administration was initiated from the next day. Each of the test liquids shown in (a) to (c) above was administered orally to the mice in each of the test drug groups using a sonde for oral administration at a dose of 0.1 ml per 10 g body weight once a day for 14 continuous days. In the same manner as the above, the cancer-bearing mice in the control group were subjected to oral administration of only 0.5% HPMC liquid for 14 continuous days.
The tumor volume of each mouse in each group before the initiation of the treatment, on day 3, day 5, day 8 (1 week after), day 11, and day 15 (2 weeks after), i.e., after termination of the administration, was calculated using Equation 1 below, and respective relative tumor volume (RTV) relative to the tumor volume at the time of initiation of the treatment was calculated. In relation to the antitumor effect, the average value of the tumor proliferation inhibition ratio (IR; %) was calculated from the average tumor volume of each treatment group on day 15 (after termination of the treatment) relative to that of the control group on day 15, using Equation 2.

sarcoma 180 cells = experiment: Inhibition of intracellular phosphorylation of 5-FU in cancer cells; format: cell-based, mouse; settings: for inhibition at 10 µM / inhibition at 100 µM: Mus musculus, Sarcoma-180, 0.5 h
Method: (§1) • (a) Test liquid preparation 1: Compound I-2 or I-10 of the present invention was dissolved to a concentration of 1 mM in cold physiological saline. The resulting product was further diluted 10-fold with physiological saline, yielding a 100-μM solution. • (b) Test liquid preparation 2: As an OPRT inhibitor, which inhibits the phosphorylation of 5-FU, citrazinic acid (Citra.A.) was dissolved to a concentration of 1 mM in cold physiological saline, and further diluted 10-fold with physiological saline, yielding a 100-μM solution. • (c) Preparation of cancer cell suspension: Ascites-type sarcoma 180 cells were preliminarily transplanted intraperitoneally into an ICR mouse and proliferated therein for use in the test as raw (intact) cells. The proliferated cells were isolated and then washed with physiological saline. […] Immediately after the completion of the reaction, 4 mL of a cold Hanks solution was added to the reaction solution, and the cells were washed and separated by centrifugation. After this procedure was repeated twice, 2 mL of a cold 5% trichloroacetic acid (TCA) solution was added to the cell pellet to disrupt the cells, and 5-FU and its nucleotide metabolites were extracted. Subsequently, a portion of the nucleic acid extract was applied to a silica gel 60F254 plate and developed with a mixed liquid comprising chloroform-methanol-acetic acid (17:3:1) to isolate the nucleotide moiety. The radioactivity thereof was measured and the concentration of 5-FU phosphorylation was measured.
as §1, with “1: Compounds I-9, I-11, I-12, and I-13” for “1: Compound I-2 or I-10”, “invention were separately” for “invention was”, “saline. Each of the” for “saline. The”, “resulting products” for “resulting product”, “acid” for “acid (Citra.A.)”

[2] = Conc. 10 μM, 30 min. Incubation, 5-FU 2 μM, Table 6
[3] = Conc. 100 μM, 30 min. Incubation, 5-FU 2 μM, Table 6
[4] = Conc. 10 μM, 30 min. Incubation, 5-FU 2 μM, Table 6, read-out: Inhibition (%) of phosphorylation of 5-FU
[5] = Conc. 100 μM, 30 min. Incubation, 5-FU 2 μM, Table 6, read-out: Inhibition (%) of phosphorylation of 5-FU
[6] = concentration of 10 μM, reaction for 30 minutes, read-out: percent inhibition of intracellular phosphorylation of 5-FU
[7] = concentration of 100 μM, reaction for 30 minutes, read-out: percent inhibition of intracellular phosphorylation of 5-FU

SMILES | RNA Fraction (sarcoma 180 cells; [2]) | RNA Fraction (sarcoma 180 cells; [3]) | inhibition at 10 µM (sarcoma 180 cells; [4]) | inhibition at 100 µM (sarcoma 180 cells; [5]) | inhibition at 10 µM (sarcoma 180 cells; [6]) | inhibition at 100 µM (sarcoma 180 cells; [7]) | also measured
CCOCn1cc(F)c(=O)n(C(=O)c2cccc(C(=O)Oc3nc(OC(=O)c4ccccc4)ccc3C#N)c2)c1=O [BOF-A2, reference compound] | – | – | – | – | – | – | Average weight change (%) ([1]; 14 mg/kg/day oral): 3.16%; Tumor proliferation inhibition ratio (%) ([1]; 14 mg/kg/day oral): 51.0%; Average weight change (%) ([1]; 21 mg/kg/day oral): −7.48%; Tumor proliferation inhibition ratio (%) ([1]; 21 mg/kg/day oral): 70.9%; Average weight change (%) ([1]; 28 mg/kg/day oral): −20.58%; Tumor proliferation inhibition ratio (%) ([1]; 28 mg/kg/day oral): 72.4%
CCOCn1cc(F)c(=O)n(C(=O)c2cccc(C(=O)Oc3cc(O)c(Cl)cn3)c2)c1=O [Compound 8a, 3-{3-[4-hydroxy-5-chloro-2-pyridyloxycarbonyl]benzoyl}-1-ethoxymethyl-5-fluorouracil] | – | – | – | – | – | – | Average weight change (%) ([1]; 11.5 mg/kg/day oral): 0.34%; Tumor proliferation inhibition ratio (%) ([1]; 11.5 mg/kg/day oral): 52.8%; Average weight change (%) ([1]; 17.3 mg/kg/day oral): 2.32%; Tumor proliferation inhibition ratio (%) ([1]; 17.3 mg/kg/day oral): 58.1%; Average weight change (%) ([1]; 23.0 mg/kg/day oral): −18.11%; Tumor proliferation inhibition ratio (%) ([1]; 23.0 mg/kg/day oral): 77.7%
CCOCn1cc(F)c(=O)n(C(=O)c2cccc(C(=O)Oc3cc(OC(=O)c4cc(OC(=O)C(C)(C)C)nc(OC(=O)C(C)(C)C)c4)c(Cl)cn3)c2)c1=O [Compound I-12, 3-{3-[4-(2,6-dipivaloyloxyisonicotinoyloxy)-5-chloro-2-pyridyloxycarbonyl]benzoyl}-1-ethoxymethyl-5-fluorouracil] | 28.15 pmol/1 × 10^7 cells | 25.48 pmol/1 × 10^7 cells | 55.5% | 59.8% | 35 to 57% | 56 to 63% | –
CCOCn1cc(F)c(=O)n(C(=O)c2cccc(C(=O)Oc3cc(OC(=O)c4ccc(OC(=O)c5ccccc5)nc4OC(=O)c4ccccc4)c(Cl)cn3)c2)c1=O [Compound I-13, 3-{3-[4-(2,6-dibenzoyloxynicotinoyloxy)-5-chloro-2-pyridyloxycarbonyl]benzoyl}-1-ethoxymethyl-5-fluorouracil] | 26.63 pmol/1 × 10^7 cells | 25.68 pmol/1 × 10^7 cells | 58.1% | 59.4% | 35 to 57% | 56 to 63% | –
